The values below come from ChEMBL document CHEMBL3832043, “DailyMed|setid=ef14e332-51ac-ea97-3542-9bc92557dbed | PROPOFOL- propofol injection, emulsion|APP Pharmaceuticals, LLC”.

The nature of data set [1]: Pharmacokinetic parameters of Propofol following intravenous administration in subjects. The conditions noted are these: human, in vivo.
Data set [2] in a line: Pharmacokinetic parameters for Propofol following multiple intravenous administration in subjects. The conditions noted are these: human, in vivo.

The clearance is a measure of how efficiently the substance is removed, as volume per time. Low values mean a low capacity for elimination, high ones a high capacity for elimination. What is called half-life is the time in which the quantity being followed falls by half. A lower half-life goes with fast loss.

In the case of `CC(C)c1cccc(C(C)C)c1O` [PROPOFOL], in data set [1], the clearance was 23 to 50 mL/min/kg. The compound further came in with a half-life in data set [2] of 24 to 72 h.
